The values that follow come from publication PMC5379102, “Sequence-selective encapsulation and protection of long peptides by a self-assembled Fe^II8L6 cubic cage” (Nature Communications, 2017).

Entries after “also recorded” stand apart in the source; their conditions may differ. Like-named read-outs stand apart in the source and are kept apart here. Non-standard residues stand in square brackets, D forms with d. Residues, ends and D or L forms follow the SMILES beside them. No end group written: not given here. *: point of attachment. Dnp = O=[N+]([O-])c1ccc(*)c([N+](=O)[O-])c1; 2Abz = Nc1ccccc1C(=O)O

Data set [1] addresses cage 1 (Fe^II8L6 cubic cage with zinc porphyrin faces). Briefly: Ultraviolet-visible titration of cage 1 with guest (host-guest binding). The method, then: Ultraviolet–visible absorption spectroscopy measurements were performed using a Perkin Elmer Lambda 750 UV-Vis-NIR spectrophotometer fitted with a PTP-1 Peltier temperature controller accessory. Spectra were obtained in double beam mode using only the (front) analyte beam to record spectra, with air in the (rear) reference path. Samples were analysed using quartz cuvettes with optical path lengths of 1 mm. Unless otherwise specified, 417 nm was the wavelength selected to follow the binding of the guest.
A solution of 1 in CH3CN:H2O (1:1) (250 μl, 1.5 μM) or pure acetonitrile was transferred to a cuvette. Small aliquots of the guest's solution were titrated into the cuvette. The experiment was performed at room temperature. Each experiment was repeated three times (Supplementary Figs 31–46 and Supplementary Methods). Data obtained from the ultraviolet–visible titration were then fitted using nonlinear analysis with DynaFit programme (Biokin Software)[30] to the binding equation derived for either 1:1 model (porphyrin:guest with one imidazole group) or 2:1 model (porphyrin:guest with two imidazole groups), except in the case of G7. G7 contains two histidine amino acids in consecutive positions, therefore the distance between the imidazole rings of these two amino acids is too short to allow the interaction with two porphyrins at the same time. In this case, the binding model was 2:1 peptide:cage.
The dilution effect was corrected by multiplying the observe intensity for the dilution factor before the fitting. The error reported for each affinity value is the formal standard error calculated by DynaFit[30] as the square root of the diagonal elements of the variance–covariance matrix. This s.e. gives an idea of the precision of the fitted value.
The experimental data obtained using UV-Vis spectroscopy for each guest was fitted using
nonlinear analysis with DynaFit program (Biokin Software)2 to the binding equation derived
for 1:1 model porphyrin:imidazole group (non-cooperative model). […]

For data set [2], the system named is cage 1 (Fe^II8L6 cubic cage with zinc porphyrin faces). Briefly: Host-guest chemistry studied by 1H NMR titration. The class given is binding. To be noted: shifts of β-pyrrolic protons of 1. The text has this:
We used 1-methylimidazole (G1) as an initial probe, following its binding by ^1H NMR spectroscopy. Due to the large cavity, only slight upfield shifts of the signals of the β-pyrrolic protons of 1 were observed following the addition of G1. […] However, when a 1:1 mixture of water:acetonitrile was used, it was necessary to add 70 equivalents to achieve saturation (Supplementary Fig. 27). We infer the weaker interaction in the presence of water to be due to competing hydrogen bonding between water and imidazole.
A solution of 1 (0.5 ml) was prepared in a mixture of CD3CN:D2O (1:1) or in pure CD3CN and was transferred to a J-Young NMR tube. Aliquots of the guest were added in the same mixture of solvents. The NMR spectrum was recorded after each addition and the sample was mixed thoroughly before each measurement (Supplementary Figs 26–30).

A further data set concerns trypsin. Briefly: Trypsinization experiments (peptide hydrolysis by trypsin, with or without 1). The class given is in vitro ADME. The method, then:
(§1) Finally, we envisaged that the closed cubic architecture of 1 could protect its histidine-containing peptide guests from enzymatic degradation. For these experiments we used the protease trypsin, which cleaves exclusively on the C-terminal side of lysine and arginine residues. We initially examined G7 as a substrate. […] The incubation of a 20 μM solution of G8 with 0.3 equiv. of trypsin in a mixture of acetonitrile and phosphate buffer (pH=7.5) for 30 min led to the cleavage of G8 in 76% yield (Supplementary Fig. 49). When the same reaction was run in the presence of 0.6 equiv. of 1 (2:1 binding stoichiometry), the extent of cleavage was only 9% (Supplementary Fig. 50). The low degree of enzymatic degradation observed is consistent with the 9 μM dissociation constant of the adduct between 1 and G8, which implies the presence of a small amount of free peptide under the reaction conditions. Importantly, when the same experiment was carried out with a non-binding G9 in place of G8, with or without 1, quantitative G9 cleavage was observed (Supplementary Figs 52 and 53). In a further test, we treated a mixture of both peptides and 1 with trypsin, and incubated the mixture under identical conditions. In this case almost complete selectivity was observed.
(§2) Trypsinization reactions were followed by analytical RP-HPLC with an Agilent 1,100 series LC using an Eclipse XDB-C18 analytical column (3 × 150 mm, 3.5 μm). Standard conditions for analytical RP-HPLC consisted on a linear gradient from 0 to 10% of solvent B in 5 min, it then increased from 10 to 70% in 30 min at a flow rate of 1.0 ml min^−1 (A: water with 0.1% trifluoroacetic acid (TFA), B: acetonitrile with 0.1% TFA); 55 μl of solution was injected to the column each time. Compounds were detected by ultraviolet absorption and subsequently characterized by electrospray ionization (ESI) (Supplementary Figs 48–56).
(§3) The samples were prepared in 200 μl solution (40% CH3CN, 50% phosphate buffer and 10% H2O; phosphate buffer: 0.1 M, pH 7.5, 0.2 M NaCl). The concentration of the solution components were: peptides (G8 and G9) 20 μM, trypsin 6 μM and 1 12 μM. However, not all components were present in each sample, as noted in the main text. The reaction mixtures were stirred at room temperature for 30 min. It was observed that longer reaction times cause degradation of 1 due to the high concentration of NaCl in the phosphate buffer. After this time, H2O (200 μl) and acetic acid (8 μl) were added to quench the reaction. In the case of the control experiments with free Zn porphyrins, the concentration of the porphyrin was 72 μM.

Experiment in data set [3]: as above
The class given is in vitro ADME. To be noted: isolated enzyme trypsin; peptide 20 μM, trypsin 6 μM (0.3 equiv.), 40% CH3CN / 50% phosphate buffer (0.1 M, pH 7.5, 0.2 M NaCl) / 10% H2O, room temperature, 30 min, RP-HPLC UV; read-out: cleavage by trypsin, single peptide, no 1. On the procedure:
as §1, §2, §3

A short description of the next data set: Solubility observations. The class given is physicochemical. On the procedure: In a J-Young NMR tube porphyrin A (4 mg, 3.3 μmol, 6 equiv.; Supplementary Figs 1–4 and Supplementary Methods), iron(II) triflate (1.5 mg, 4.4 μmol, 8 equiv.) and 5,6,7,8-tetrahydronaphthalen-2-amine B (1.9 mg, 13 μmol, 24 equiv.) were suspended in [D7]DMF (400 μl) and [D3]MeCN (100 μl). The solution was deoxygenated by three freeze-pump-thaw cycles, the tube was sealed, and heated in the oil bath for 8 h at 70 °C. After this time, the solution was opened to air and cooled to room temperature. […] The suspension was centrifuged and the solvent above the solid was removed. The purple solid was washed twice with chloroform (3 ml) and partially dried under nitrogen. The solid was dissolved in acetonitrile (0.5 ml) after drying with nitrogen. 1 (Supplementary Figs 5–12) was not soluble in pure water, but it is soluble in a 1:1 acetonitrile:water mixture (1 mg ml^−1).

[4] abbreviates: 1:1 acetonitrile:water, 20 °C, 1 at 1.5 μM, UV-Vis at 417 nm, non-cooperative 1:1 imidazole (or thiazole):porphyrin model, except G7 (2:1 peptide:1), DynaFit fit, ± formal standard error, repeated three times, read-out: Kd (μM) in CD3CN:H2O (1:1).
Where [5] appears, read: peptide 20 μM, trypsin 6 μM, 1 12 μM, 40% CH3CN / 50% phosphate buffer (0.1 M, pH 7.5, 0.2 M NaCl) / 10% H2O, room temperature, 30 min, RP-HPLC UV.
Where [6] appears, read: 1:1 acetonitrile:water, 20 °C, 1 at 1.5 μM, UV-Vis at 417 nm, non-cooperative 1:1 imidazole (or thiazole):porphyrin model, except G7 (2:1 peptide:1), DynaFit fit, ± formal standard error, repeated three times.

Take `Cn1ccnc1` [Guest G1, 1-methylimidazole]: the Kd in data set [1] (setting [4]) is 900 ± 70 µM; in data set [1] (pure acetonitrile, 20 °C, 1 at 1.5 μM, UV-Vis at 417 nm, non-cooperative 1:1 imidazole:porphyrin model, DynaFit fit, ± formal standard error, repeated three times, read-out: Kd (μM) in CD3CN), 30 ± 1 µM. Besides, the “equivalents of guest at saturation (1H NMR)” value in data set [2] (in 1:1 water:acetonitrile) was 70 equivalents; in data set [2] (in acetonitrile) it was “seven”.
Take `CC[C@H](C)[C@H](NC(=O)CNC(=O)c1ccccc1N)C(=O)N[C@H](C(=O)N[C@@H](CCCNC(=N)N)C(=O)N[C@@H](C)C(=O)N[C@@H](CCCCNc1ccc([N+](=O)[O-])cc1[N+](=O)[O-])C(=O)O)C(C)C` [Guest G9, Abz-NH-G-I-V-R-A-K(Dnp)-OH] (H-[2Abz]GIVRAK(Dnp)-OH): in the data set with trypsin (free A or water-soluble Zn-tetrakis(4-sulfonatophenyl)porphyrin 72 μM, peptide 20 μM, trypsin 6 μM, pH 7.5, 30 min), the “hydrolysis by trypsin in the presence of free Zn porphyrin” value is recorded as “unaffected”. For the same compound, the “cleavage by trypsin, single peptide, no 1” value in the data set on trypsin (peptide 20 μM, trypsin 6 μM (0.3 equiv.), 40% CH3CN / 50% phosphate buffer (0.1 M, pH 7.5, 0.2 M NaCl) / 10% H2O, room temperature, 30 min, RP-HPLC UV) was “quantitative”. The “cleavage by trypsin, single peptide, in the presence of 0.6 equiv. of 1” value with trypsin (setting [5]) is given as “quantitative”. In data set [1] (setting [6]), the “Kd (μM) in CD3CN:H2O (1:1)” value was “no binding interaction; also recorded: not observed to interact”.
On to `CC[C@H](C)[C@H](NC(=O)[C@@H](N)CCC(=O)O)C(=O)N[C@@H](CC(C)C)C(=O)N[C@@H](CC(=O)O)C(=O)N[C@H](C(=O)N1CCC[C@H]1C(=O)N[C@@H](CO)C(=O)N[C@H](C(=O)O)[C@@H](C)O)C(C)C` [Guest G10, H2N-E-I-L-D-V-P-S-T-OH], for which, in data set [1] (setting [6]), the “Kd (μM) in CD3CN:H2O (1:1)” value is on record as “no binding interaction; also recorded: not observed to interact”.
In the case of `c1cscn1` [thiazole], the Kd in data set [1] (setting [4]) is 1000 ± 200 µM.
Regarding H-SSWGHVGKYVHGWSHVS-OH [Guest G8], the “yield of cleavage by trypsin, mixture of G8 and G9, 0.6 equiv of 1” value in the data set with trypsin (both peptides 20 μM, trypsin 6 μM, 1 12 μM, 40% CH3CN / phosphate buffer pH 7.5, room temperature, 30 min, RP-HPLC UV) is listed as 11%. Also, the “cleavage by trypsin, single peptide, in the presence of 0.6 equiv. of 1” value in the data set on trypsin (setting [5]) came out at 9%. Also, in data set [3], the metabolised at 0.5 h worked out at 76%. Moreover, in data set [1] (setting [4]), the Kd came to 9 ± 2 µM. For the same compound, the “times lower affinity than G7” value in data set [1] (in 1:1 acetonitrile:water) is 100.
Regarding “VFQFLGKIIHHVGNFVHGFSHVF [Guest G7, Clavanin A]”, the “equivalents of guest that saturate the cage (UV-Vis)” value in data set [1] (1:1 CH3CN:H2O, 20 °C, 1 at 1.5 µM (G7 3 µM)) is on record as “two”. For the same compound, the Kd in data set [1] (1:1 CH3CN:H2O, 20 °C, 1 at 1.5 µM (Supplementary Figure 43), 2:1 peptide:1 model, read-out: Kd, titration at 1.5 µM cage) was found to be 0.06 ± 0.05 µM; in data set [1] (setting [4]), 0.08 ± 0.02 µM. Moreover, the “solubility at neutral pH” value in the data set “Solubility observations” (trypsinization conditions) is listed as “low solubility”.
Regarding tetrakis(formylpyridine)porphyrin A, in the data set “Solubility observations” (in either water or acetonitrile), the “solubility in water or acetonitrile” value is “not observed to dissolve”.
